Structures can show the parent of a compound that is named as a salt.
Assays:
Laser-induced thrombosis = test: Inhibition of Laser-induced thrombosis; assay type: in vivo, Sprague-Dawley rats; conditions: 10 mg/kg p.o., one hour before start; mesentery arterioles, rat
Description: 3. Inhibition of Laser-induced thrombosis
The investigations of the compounds according to the invention in the model of Laser-induced thrombosis are carried out on male or female Sprague-Dawley rats with a body weight of about 200 g. The animals to be investigated are premedicated s.c. with 0.1 mg of atropine sulfate in solution, and anesthetized i.p. with 100 mg of ketamine hydrochloride and 4 mg of xylazine per kg of body weight. Arterioles from the mesentry, with a diameter of 12-25 μm, are used for the investigation. During the measurement, the exposed mesentry is hyperfused with warmed physiological NaCl (37° C.) or is covered with degassed liquid paraffin. The beam of a 4 W argon laser (supplied by Spectra Physics, Darmstadt, FRG) is introduced coaxially into the inverted ray path of a microscope (ICM 405, LD-Epilan 40/0.60; supplied by Zeiss, Oberkochen, FRG) by means of a ray adaptation and adjustment system (supplied by BIG, Munich, FRG). […]
The number of shots needed to induce a defined thrombus was counted. The frequency of the laser flashes was one lesion every 2 minutes, all the thrombi with a minimum size of 1/4 of the vessel radius which were formed during the observation period being counted and measured. The results of the experiment were statistically analyzed using the x^2 test (L. Cavalli-Sforza, Biometrie, Stuttgart, 1969, pages 49 et seq.).

[1] = test system: TXA2 release in platelet-rich human plasma; test: Thrombin-induced TXA2 release in platelet-rich human plasma in vitro (TXB2 radioimmunoassay); assay type: cell-based; conditions: 0.5 h, relative TXB2 content, without test substance = 100%, 0.5 U thrombin + 7.2×10^-7 M arachidonic acid; for activity at 1 µM: 10^-6 mol/l test substance; for activity at 0.1 µM: 10^-7 mol/l test substance
Description: 2. Thrombin-induced TXA2 release in platelet-rich human plasma in vitro Blood is taken, by careful cannulation of the antecubital vein, from apparently healthy male and female volunteers, who have taken no medicaments in the preceding 10-day period, and is immediately stabilized with sodium citrate (ad. 0.38%). Platelet-rich plasma (PRP) is obtained in the supernatant by centrifugation at 140×g for 15 minutes, and the platelet content of this should be in the range 2.5-3.5×10^8 /ml. […] This is stopped in an ice bath and, after addition of tracer and TXB2 -specific antibodies (NEN, Dreieich), the TXB2 content is determined radioimmunologically (TXA2 is unstable under the experimental conditions and thus cannot be measured. The stable hydrolysis product TXB2 is measured in its place). The measured variable is the relative TXB2 content in the platelet incubations from two or three different donors with and without (=100%) the test substance.

human platelets = test: Inhibition of the arachidonic acid-induced aggregation of human platelets in vitro; assay type: cell-based; conditions: Platelet, PRP, 10 min preincubation at 37° C., 2×10^-4 M arachidonic acid
Description: 1. Inhibition of the arachidonic acid-induced aggregation of human platelets in vitro.
The platelet aggregation is followed optically by measurement of the transmission of light in a Born aggregometer. The total volume of the test mix is 0.25 ml. The preincubation time at 37° C. with the test product is 10 min, and aggregation is then induced with 2×10^-4 M arachidonic acid. The test product is, as a rule, tested in five different concentrations in the PRP from three different donors. Dose-effect curves are drawn from the maximal aggregation amplitudes in each case, and the IC50 values are determined graphically. […] The measurements are carried out in the period 1-6 hours after blood sampling.

| SMILES | Number of laser shots to form a thrombus (compared with control) (Laser-induced thrombosis) | activity at 1 µM [1] [%] | activity at 0.1 µM [1] [%] | IC50 (human platelets) [µM] |
| --- | --- | --- | --- | --- |
| Cc1ccncc1C(O)c1ccc2cc(C(=O)O)ccc2c1.Cl (stereo not shown) [Example 8, 6-[1-Hydroxy-1-(4-methyl-3-pyridyl)methyl]-2-naphthoic acid hydrochloride] | +56% | 13 | 88 | 6.3 |
| O=C(O)c1ccc2cc(C(O)c3cccnc3)ccc2c1 (stereo not shown) [Example 9, hydrochloride of 6-[1-hydroxy-1-(3-pyridyl)methyl]-2-naphthoic acid] |  | 21 | 64 | 1.7 |

Source: patent publication US4734406A, “3-pyridylmethylnaphthyl derivatives and composition containing them useful to inhibit thromboxane synthetase” (priority 1985, dated 1988)
